For 3 compounds, ΔTm, DC50 and Kb results are on record in article PMC10489911 (2023).

Experiment [1] concerns AG3(T2AG3)3 (G4-Tel, telomeric G4) (DNA, G4) AGGGTTAGGGTTAGGGTTAGGG
The experiment can be described thus: CD melting at 295 nm. The following applies: K+ 100 mM KCl, plus potassium phosphate; 20 mM phosphate, pH 6.8; 2 equivalents of ligand; Tm 56.1 alone.

Experiment [2] has the same test system. Briefly: G4-FID fluorescence displacement. As to conditions: K+ 100 mM KCl, plus potassium phosphate, PBS pH 6.8, 25 °C, thiazole orange displaced.
Experiment [3] shares this test system. Briefly: UV-Vis titration. As to conditions: K+ 100 mM KCl, plus potassium phosphate, 20 mM phosphate, pH 6.8, ligand 2 μM.

By ΔTm is commonly meant the change in melting temperature against a reference sample. For `C[n+]1ccc(-c2cc3c(cc2-c2cc[n+](C)cc2)-c2nc-3c(-c3ccccc3)c3ccc([n-]3)c(-c3ccccc3)c3nc(c(-c4ccccc4)c4ccc([n-]4)c2-c2ccccc2)-c2cc(-c4cc[n+](C)cc4)c(-c4cc[n+](C)cc4)cc2-3)cc1.[Ni+2]`, in experiment [1], the ΔTm amounted to 8.5 °C. For the same compound, the DC50 in experiment [2] (text prints 1.04) is 1020 ± 60 nM. Besides, in experiment [3] (ligand aggregates in buffer), the Kb was 3.71 ± 1.28 × 10^6 M^−1.
For the compound `C[n+]1ccc(-c2cc3c(cc2-c2cc[n+](C)cc2)-c2nc-3c(-c3ccccc3)c3ccc([n-]3)c(-c3ccccc3)c3nc(c(-c4ccccc4)c4ccc([n-]4)c2-c2ccccc2)-c2cc(-c4cc[n+](C)cc4)c(-c4cc[n+](C)cc4)cc2-3)cc1.[Zn+2]`, in experiment [1], the shift in melting temperature (ΔTm) is 7.4 °C. In addition, in experiment [2], the DC50 turned out to be 420 ± 80 nM. For the same compound, the Kb in experiment [3] (ligand aggregates in buffer) is on record as 7.05 ± 1.31 × 10^6 M^−1.
Regarding `C[n+]1ccc(-c2cc3c(cc2-c2cc[n+](C)cc2)-c2nc-3c(-c3ccccc3)c3ccc([nH]3)c(-c3ccccc3)c3nc(c(-c4ccccc4)c4ccc([nH]4)c2-c2ccccc2)-c2cc(-c4cc[n+](C)cc4)c(-c4cc[n+](C)cc4)cc2-3)cc1`, the thermal shift (ΔTm) in experiment [1] is 2.3 °C. Also, the DC50 in experiment [2] (table prints 0.90 ± 0.04, its ratio 2.01 fits 0.99) came out at 990 nM. Further, the Kb in experiment [3] is 6.01 ± 1.11 × 10^6 M^−1.
